Source: PubChem BioAssay (NCI)
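Values below derive from 48-hour exposures of cells grown in 96-well plates, with endpoints linearly interpolated between the two concentrations bracketing the appropriate inhibition level. Here, GI50 denotes the concentration required for 50% inhibition of growth. TGI: total growth inhibition.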

Columns and labels:
Assay in all cases: inhibition of tumour cell growth, NCI panel, 48 h
T-47D breast = system: T-47D breast
BT-549 breast = system: BT-549 breast
786-0 renal = system: 786-0 renal
MDA-MB-231 breast = system: MDA-MB-231 breast
SNB-78 CNS = system: SNB-78 CNS
LXFL 529 NSCLC = system: LXFL 529 NSCLC
KM20L2 colon = system: KM20L2 colon
DMS 273 small cell lung = system: DMS 273 small cell lung
M19-MEL melanoma = system: M19-MEL melanoma
XF 498 CNS = system: XF 498 CNS

Row | SMILES | GI50 (T-47D breast) [µM] | TGI (T-47D breast) [µM] | GI50 (BT-549 breast) [µM] | TGI (BT-549 breast) [µM] | GI50 (786-0 renal) [µM] | TGI (786-0 renal) [µM] | GI50 (MDA-MB-231 breast) [µM] | TGI (MDA-MB-231 breast) [µM] | TGI (SNB-78 CNS) [µM] | TGI (LXFL 529 NSCLC) [µM] | TGI (KM20L2 colon) [µM] | TGI (DMS 273 small cell lung) [µM] | TGI (M19-MEL melanoma) [µM] | TGI (XF 498 CNS) [µM]
1 | CCNCCNc1cc(-c2ccc(C(F)(F)F)cc2)c(C#N)c2nc3ccccc3n12 | 0.79 | 2.6 | 1.59 | 3.16 | 1.57 | 3.06 | 1.16 | 2.52 |  |  |  |  |  | 
2 | COC(=O)C(Cc1nc2ccccc2[nH]c1=O)C(NO)C(=O)Nc1c(Cl)cc([N+](=O)[O-])cc1Cl (configuration not stated) |  |  |  |  |  | > 100 |  |  | > 100 |  |  |  |  | 
3 | COc1ccc(C(=O)c2cc(OC)c(OC)c(OC)c2)cc1/C=C/C(=O)c1ccc(F)cc1 | 3.54 | 27.8 | 3.27 | 13.1 | 2.15 | 5.57 | 4.72 | 84.5 |  |  |  |  |  | 
4 | O=c1cc(NCC(O)CN2CCCC2)n(Cc2ccccc2)c(=O)n1Cc1ccccc1 (configuration not stated) | 52.4 | > 100 | 61.6 | > 100 | 32.3 | > 100 | 26.3 | 70.6 |  |  |  |  |  | 
5 | COc1cc2ncnc(-n3ncc4cc(NC(=O)Nc5ccccc5)ccc43)c2cc1OC | 0.183 | 1.37 | 1.55 | 12 | 1.3 | 4.34 | 1.39 | 4.92 |  |  |  |  |  | 
6 | C/C(=N\Nc1ccc(Cl)cn1)c1ccc2ccccc2n1 | 3.48 | 68.4 | 2.62 | > 100 | 2.44 | 7.55 | 3.36 | > 100 |  |  |  |  |  | 
7 | CCCN(CCC)C(=O)c1c([N+](=O)[O-])cc(C(F)(F)F)cc1[N+](=O)[O-] |  |  |  |  |  | > 100 |  |  | > 100 | > 100 | 53.7 | > 100 | 27 | 
8 | CCCCC(CC)COC(=O)C[N+](C)(C)CCOC(c1ccccc1)c1ccccc1 (configuration not stated) | 1.91 | 4.44 |  |  | 2.3 | 5.69 | 1.83 | 3.88 |  |  |  |  |  | 
9 | S=c1ssc(N2CCOCC2)c1Cl | > 100 | > 100 |  |  | > 100 | > 100 | 26.6 | > 100 |  |  |  |  |  | 
10 | O=C(N/N=C/c1cc(Br)ccc1O)N/N=C/c1cc(Br)ccc1O |  |  |  |  |  | > 100 |  |  |  |  | > 100 | > 100 | > 100 | > 100
11 | COC(=O)C(CC(=O)Nc1ccc(C)cc1)C(=O)C(=O)Nc1c(C(C)C)cccc1C(C)C (configuration not stated) |  |  |  |  |  | > 100 |  |  | > 100 | > 100 | > 100 |  | > 100 | > 100
12 | COc1cc(/C=C/c2ccc(OC)c(O)c2)cc(OC)c1 |  |  |  |  |  | 32.7 |  |  | 44.4 | 39.3 | 47.5 | 34.1 | 30.9 | 9.52
13 | c1ccc(Sc2ccc(Cc3nc4cc5ccccc5cc4[nH]3)cc2)cc1 | 5.2 | 26.2 | 16.4 | > 84.9 | 4.77 | > 63.8 | 3.31 | 29.9 |  |  |  |  |  | 
14 | c1cnn(CN(Cn2cccn2)Cn2cccn2)c1 |  |  |  |  |  | > 100 |  |  | > 100 |  | > 100 | > 100 | > 100 | > 100
15 | Cc1ccc(N=C/C=C(\Nc2ccc(C)cc2)c2ccc(Cl)cc2)cc1 | > 100 | > 100 | 11.2 | 29.2 | 11.1 | 28.7 | 11.2 | 46.6 |  |  |  |  |  | 
16 | Cn1cc(C2(C)CC(C)(C)c3c2n(C)c2ccccc32)c2ccccc21 (configuration not stated) |  |  |  |  |  | > 100 |  |  | > 100 | > 100 | > 100 | > 100 | > 100 | > 100
17 | COc1cc2c3c(n(CCCN)c(=O)c2cc1OC)-c1ccc(C#N)cc1C3=O | 13.2 | 34.9 |  |  | 4.43 | 20.3 | 14.3 | 29.3 |  |  |  |  |  | 
18 | CN1CCN(CCCNc2nc3ccc(Oc4ccc(NC(=O)Nc5cc(C(F)(F)F)ccc5F)cc4)cc3[nH]2)CC1 | 3.43 | 7.21 | 4.23 | 8.04 | 5.26 | 11.9 | 3.97 | 7.65 |  |  |  |  |  | 
19 | NS(=O)(=O)c1ccc(-c2ccc3c(NC(=O)C4CC4)n[nH]c3c2)cc1 | > 25 | > 25 | > 25 | > 25 | > 25 | > 25 | > 25 | > 25 |  |  |  |  |  | 
20 | CN(C)CCNc1ccc(CO)c2oc3ccc(O)cc3c(=O)c12 |  | 59.4 |  | 28.4 |  | 46.1 |  | 37.7 |  |  |  |  |  | 
21 | CC1=C(/C=C/Cl)CC(Cl)C(C)(Cl)C1 (configuration not stated) |  | > 100 |  | > 100 |  | > 100 |  | > 100 |  |  |  |  |  | 
22 | COc1ccc(-c2[nH]c3ccc(OC)cc3c2/C=C(\C#N)S(=O)(=O)c2ccccc2)cc1 | 0.901 | 12.1 | 4.51 | > 100 | 2.03 | > 100 | 1.32 | > 30.7 |  |  |  |  |  | 
23 | Nc1nc(Nc2cccnc2)sc1C(=O)c1ccccc1F | 1.83 | 11.9 | 1.64 | 6.54 | 3.18 | > 34.9 | 3.47 | > 100 |  |  |  |  |  | 
24 | CCc1nc2cc(F)c(/C=C/C(=O)NO)cc2c(=O)n1CCc1ccccc1 | 0.22 | 0.853 | 0.377 | 12.6 | 0.309 | 2.03 | 0.376 | 15.3 |  |  |  |  |  | 
25 | N#Cc1cc(-c2cc3ccccc3o2)oc1N | 3.89 | 59 | 3.58 | 14 | 4.74 | 22.5 | 1.89 | 4.76 |  |  |  |  |  | 
26 | Cc1ccc(NC(=O)c2cccc(C(C)(C)C#N)c2)cc1Nc1ccc2ncn(C)c(=O)c2c1 | 3.66 | > 100 | 5.17 | > 100 | 11.6 | > 100 | < 0.0239 | > 29 |  |  |  |  |  | 
